Laboratory results from paper PMC7083148, “Identification of a General Odorant Receptor for Repellents in the Asian Corn Borer Ostrinia furnacalis” (Frontiers in Physiology, 2020).

Each compound was assayed against T1, OfurOR27 (Ostrinia furnacalis, UniProt A0A0E4B5I0) (assay: two-electrode voltage clamp in Xenopus oocytes co-expressing OfurOR27/OfurOrco, dose-response).
T1 construct: gene OR27; full-length ORF (402 amino acids); with OfurOrco (OfurOR2)
T1 sequence (A0A0E4B5I0 1-401): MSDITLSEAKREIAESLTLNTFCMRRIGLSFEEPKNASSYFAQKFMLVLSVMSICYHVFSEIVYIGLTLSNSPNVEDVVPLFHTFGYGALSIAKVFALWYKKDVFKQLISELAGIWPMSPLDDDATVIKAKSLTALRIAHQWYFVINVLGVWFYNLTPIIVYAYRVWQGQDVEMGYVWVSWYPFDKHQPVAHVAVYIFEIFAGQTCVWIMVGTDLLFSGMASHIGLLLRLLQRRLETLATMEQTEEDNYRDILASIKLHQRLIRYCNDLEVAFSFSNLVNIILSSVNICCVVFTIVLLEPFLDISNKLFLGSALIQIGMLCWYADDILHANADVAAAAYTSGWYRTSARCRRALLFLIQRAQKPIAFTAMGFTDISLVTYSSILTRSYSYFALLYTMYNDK
T1 sequence (A0A0E4B591 1-474 partner): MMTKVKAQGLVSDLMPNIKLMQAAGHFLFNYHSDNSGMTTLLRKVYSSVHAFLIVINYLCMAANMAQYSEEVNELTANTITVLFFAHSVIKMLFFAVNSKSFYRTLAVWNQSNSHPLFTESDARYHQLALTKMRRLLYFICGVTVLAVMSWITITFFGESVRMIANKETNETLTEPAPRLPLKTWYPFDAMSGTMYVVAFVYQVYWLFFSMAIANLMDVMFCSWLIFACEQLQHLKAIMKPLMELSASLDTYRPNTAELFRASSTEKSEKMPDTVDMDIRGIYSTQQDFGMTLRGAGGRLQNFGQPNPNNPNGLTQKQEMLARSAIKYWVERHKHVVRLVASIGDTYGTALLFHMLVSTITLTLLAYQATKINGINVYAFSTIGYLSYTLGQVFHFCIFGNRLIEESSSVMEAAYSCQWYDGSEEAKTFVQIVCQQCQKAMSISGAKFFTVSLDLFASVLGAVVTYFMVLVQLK
Type: cell-based
`CCCCCCCCO` [1-octanol] was tested, and the EC50 was 14.1 µM. For `CCCCCCCCC=O` [nonanal], the EC50 was 0.367 µM. For `CCCCCCCC=O` [octanal], the EC50 was 1.18 µM.
